Experimental data from the supplement of paper PMC8671470.

What was measured:
Conditions in all cases: 72 h
HL-60 [1] = test: cell viability (% survival relative to DMSO control, bortezomib = 0%); higher = less cytotoxic
Procedure, shortened: (§1)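 Percent survival is reported as the mean of duplicate wells. Cells from 10 AML and 5 CML lines were plated in 384-well plates containing compounds at 1, 10, 100, 1000 or 10000 nM and kept for 72 h at 37 °C in 5% CO2. Readout used CellTiter-Glo luminescence, scaled so that vehicle equals 100% and a 10 µM positive control equals 0%.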

BV-173 [2] = test: as above
Procedure, shortened: as §1

ML-2 [3] = test: as above
Procedure, shortened: as §1

Mono-Mac-6 [4] = test: as above
Procedure, shortened: as §1

THP-1 [5] = test: as above
Procedure, shortened: as §1

KU-812 [6] = test: as above
Procedure, shortened: as §1

SHI-1 [7] = test: as above
Procedure, shortened: as §1

MV4-11 [8] = test: as above
Procedure, shortened: as §1

K-562 [9] = test: as above
Procedure, shortened: as §1

KCL-22 [10] = test: as above
Procedure, shortened: as §1

NOMO-1 [11] = test: as above
Procedure, shortened: as §1

HEL [12] = test: as above
Procedure, shortened: as §1

MOLM-13 [13] = test: as above
Procedure, shortened: as §1

KG-1 [14] = test: as above
Procedure, shortened: as §1

HL-60 [15] = tested on: HL-60
Procedure, shortened: (§2)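 For the IC50, dose–response curves were fitted with a log-logistic model. The data came from fifteen myeloid leukaemia cell lines grown in RPMI 1640 at densities in the linear growth range and incubated in 384-well plates for 72 h at 37 °C under 5% CO2. Doses were five tenfold steps from 1 to 10,000 nM in duplicate, and luminescent ATP viability was normalised to vehicle and to a positive control at 10 µM before four-parameter fitting.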

BV-173 [16] = tested on: BV-173
Procedure, shortened: as §2

ML-2 [17] = tested on: ML-2
Procedure, shortened: as §2

Mono-Mac-6 [18] = tested on: Mono-Mac-6
Procedure, shortened: as §2

THP-1 [19] = tested on: THP-1
Procedure, shortened: as §2

KU-812 [20] = tested on: KU-812
Procedure, shortened: as §2

SHI-1 [21] = tested on: SHI-1
Procedure, shortened: as §2

MV4-11 [22] = tested on: MV4-11
Procedure, shortened: as §2

K-562 [23] = tested on: K-562
Procedure, shortened: as §2

KCL-22 [24] = tested on: KCL-22
Procedure, shortened: as §2

NOMO-1 [25] = tested on: NOMO-1
Procedure, shortened: as §2

HEL [26] = tested on: HEL
Procedure, shortened: as §2

MOLM-13 [27] = tested on: MOLM-13
Procedure, shortened: as §2

LAMA-84 = tested on: LAMA-84
Procedure, shortened: as §2

KG-1 [28] = tested on: KG-1
Procedure, shortened: as §2

HL-60 [29] = test: area under dose-response curve (viability, 1 nM-10 uM) (fraction (0-1)); higher = more sensitive
Procedure, shortened: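 In 384-well plates, the full library was rescreened in duplicate on HL-60 cells in RPMI 1640 with 10% FBS, at 1–10,000 nM in five tenfold concentrations, for 72 h at 37 °C, 5% CO2. Each run also held DMSO or 100 nM of one of three metabolic inhibitors. Viability was measured by CellTiter-Glo and normalised to DMSO wells and to wells with proteasome inhibitor, present at 10 μM. Any area under the curve comes from four-parameter log-logistic fitting with drc and PharmacoGx.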

COC(=O)[C@]12CCC(C)(C)C[C@H]1[C@H]1C(=O)C=C3[C@@]4(C)C=C(C#N)C(=O)C(C)(C)[C@@H]4CC[C@@]3(C)[C@]1(C)CC2 [Bardoxolone methyl]
Conditions	area under dose-response curve, co-treatment: AZD3965 100 nM	area under dose-response curve, co-treatment: DMSO vehicle	area under dose-response curve, co-treatment: GSK2194069 100 nM	area under dose-response curve, co-treatment: pictilisib 100 nM	cell viability, 1 nM [%]	cell viability, 10 nM [%]	cell viability, 100 nM [%]	cell viability, 1000 nM [%]	cell viability, 10000 nM [%]
BV-173 [2]	–	–	–	–	89.7	102	116	61	5.94
HEL [12]	–	–	–	–	106	92.6	117	84.7	-0.0991
HL-60 [1]	–	–	–	–	114	91.8	112	93.6	94.2
HL-60 [29]	0.0976	< 0.0301	0.0723	0.144	–	–	–	–	–
K-562 [9]	–	–	–	–	106	97.5	114	98.8	86.9
KCL-22 [10]	–	–	–	–	100	107	112	56.2	0.0358
KG-1 [14]	–	–	–	–	96.6	101	117	53.5	1.37
KU-812 [6]	–	–	–	–	84.9	104	113	91.3	59.2
ML-2 [3]	–	–	–	–	91.7	103	113	73.1	-0.425
MOLM-13 [13]	–	–	–	–	107	81.7	118	91.9	87.5
MV4-11 [8]	–	–	–	–	113	111	112	94.3	96.9
Mono-Mac-6 [4]	–	–	–	–	82.9	103	123	44.6	13.7
NOMO-1 [11]	–	–	–	–	99.4	99.3	115	101	80.8
SHI-1 [7]	–	–	–	–	107	103	118	106	94.3
THP-1 [5]	–	–	–	–	95.2	104	108	81.6	56.3

Conditions	IC50 (cell viability) [nM]
BV-173 [16]	1220
HEL [26]	2240
HL-60 [15]	> 10000
K-562 [23]	> 10000
KCL-22 [24]	1140
KG-1 [28]	1090
KU-812 [20]	9500
LAMA-84	> 10000
ML-2 [17]	1640
MOLM-13 [27]	> 10000
MV4-11 [22]	> 10000
Mono-Mac-6 [18]	790
NOMO-1 [25]	> 10000
SHI-1 [21]	> 10000
THP-1 [19]	7050

C=C(C)[C@H]1Cc2c(ccc3c2O[C@@H]2COc4cc(OC)c(OC)cc4[C@@H]2C3=O)O1 [Rotenone]
Conditions	area under dose-response curve, co-treatment: AZD3965 100 nM	area under dose-response curve, co-treatment: DMSO vehicle	area under dose-response curve, co-treatment: GSK2194069 100 nM	area under dose-response curve, co-treatment: pictilisib 100 nM	cell viability, 1 nM [%]	cell viability, 10 nM [%]	cell viability, 100 nM [%]	cell viability, 1000 nM [%]	cell viability, 10000 nM [%]
BV-173 [2]	–	–	–	–	106	77	49.9	1.45	0.515
HEL [12]	–	–	–	–	99.4	92	63.2	12.3	1.89
HL-60 [1]	–	–	–	–	97.1	79.3	82.1	0.525	3.28
HL-60 [29]	0.137	0.319	0.289	0.256	–	–	–	–	–
K-562 [9]	–	–	–	–	88.9	66.4	30.6	3.39	2.57
KCL-22 [10]	–	–	–	–	97.8	103	81.7	0.654	1.21
KG-1 [14]	–	–	–	–	93.6	83.7	43.7	11.5	11.6
KU-812 [6]	–	–	–	–	87.9	65.9	16.6	3.5	2.89
ML-2 [3]	–	–	–	–	94.4	94.1	97.1	1.51	3.18
MOLM-13 [13]	–	–	–	–	103	77.8	67.2	2.3	0.733
MV4-11 [8]	–	–	–	–	97.2	70	58.4	0.45	0.258
Mono-Mac-6 [4]	–	–	–	–	94.1	96.4	76.7	9.03	2.24
NOMO-1 [11]	–	–	–	–	93.9	109	92	39.8	8.45
SHI-1 [7]	–	–	–	–	96.3	93.4	73.7	4.23	5.24
THP-1 [5]	–	–	–	–	98.9	104	76.2	37.6	24.5

Conditions	IC50 (cell viability) [nM]
BV-173 [16]	80
HEL [26]	168
HL-60 [15]	269
K-562 [23]	40.7
KCL-22 [24]	206
KG-1 [28]	68.4
KU-812 [20]	23.2
LAMA-84	74.4
ML-2 [17]	322
MOLM-13 [27]	176
MV4-11 [22]	156
Mono-Mac-6 [18]	225
NOMO-1 [25]	644
SHI-1 [21]	179
THP-1 [19]	268
